Measurements reported in patent publication US9096624B2 (OSI Pharmaceuticals, LLC, priority 2009, dated 2015).
One block for each compound: values may come before it.

Assays:
FAK [1] = target: T1, FAK (Homo sapiens, UniProt Q05397); assay: Cell-based capture ELISA for inhibition of FAK autophosphorylation [pY397] in MiaPaCa2 cells; settings: MIA-PaCa2 cells, + 50% mouse plasma (Table 3); read-out: Mean FAK Cell Mechanistic IC50 + 50% mP MIA-PaCa2
Method: Cell-Based Assays for Inhibition of FAK Autophosphorylation: MiaPaCa2 and U87MG
ELISA kit from Invitrogen (KHO0441).
Reagents Provided in Biosource FAK [pY397]
The cells were then suspended in cell assay medium.

FAK [2] = target: T1, FAK; assay: biochemical

T1 sequence (Q05397 whole entry): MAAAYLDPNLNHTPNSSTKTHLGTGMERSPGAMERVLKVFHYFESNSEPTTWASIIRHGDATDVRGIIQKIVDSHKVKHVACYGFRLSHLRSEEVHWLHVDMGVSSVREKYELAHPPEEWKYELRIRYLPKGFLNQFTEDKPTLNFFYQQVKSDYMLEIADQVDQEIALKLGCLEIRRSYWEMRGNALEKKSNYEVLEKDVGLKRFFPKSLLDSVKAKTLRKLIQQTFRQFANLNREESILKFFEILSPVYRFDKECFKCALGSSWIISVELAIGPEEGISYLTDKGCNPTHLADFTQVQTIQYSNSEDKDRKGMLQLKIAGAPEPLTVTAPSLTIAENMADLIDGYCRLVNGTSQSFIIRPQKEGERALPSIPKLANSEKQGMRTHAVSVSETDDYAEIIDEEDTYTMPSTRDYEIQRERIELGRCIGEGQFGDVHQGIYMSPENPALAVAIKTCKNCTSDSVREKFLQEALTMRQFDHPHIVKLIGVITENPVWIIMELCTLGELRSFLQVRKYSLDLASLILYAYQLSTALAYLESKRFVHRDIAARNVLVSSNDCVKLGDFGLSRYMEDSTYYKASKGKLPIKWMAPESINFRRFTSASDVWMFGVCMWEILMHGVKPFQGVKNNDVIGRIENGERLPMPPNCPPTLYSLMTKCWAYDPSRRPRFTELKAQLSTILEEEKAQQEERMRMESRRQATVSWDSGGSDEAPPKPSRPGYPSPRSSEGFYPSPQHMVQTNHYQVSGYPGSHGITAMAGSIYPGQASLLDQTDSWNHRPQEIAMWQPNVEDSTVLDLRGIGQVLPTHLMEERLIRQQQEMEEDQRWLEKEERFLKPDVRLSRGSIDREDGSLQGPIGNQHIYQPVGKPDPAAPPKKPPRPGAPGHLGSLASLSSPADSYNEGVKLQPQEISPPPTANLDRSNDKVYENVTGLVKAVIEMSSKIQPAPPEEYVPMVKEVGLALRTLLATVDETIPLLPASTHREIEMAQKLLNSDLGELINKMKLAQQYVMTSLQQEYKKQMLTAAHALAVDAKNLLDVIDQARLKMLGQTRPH

IC50 (FAK [1]): < 1000 nM | IC50 (FAK [2]): < 1000 nM
Structure (SMILES): COc1cc(CP(=O)(OCC(F)(F)F)OCC(F)(F)F)ccc1Nc1ncc(C(F)(F)F)c(Nc2cccc3c2C(=O)N(C)C3)n1 [Example 124, Bis(2,2,2-trifluoroethyl) [3-methoxy-4-({4-[(2-methyl-3-oxo-2,3-dihydro-1H-isoindol-4-yl)amino]-5-(trifluoromethyl)pyrimidin-2-yl}amino)benzyl]phosphonate]

Structure (SMILES): CCOP(=O)(Cc1ccc(Nc2ncc(C(F)(F)F)c(Nc3ccc(-c4cnn(C)c4)cc3C(=O)NC)n2)cc1)OCC [Example 125, Diethyl (4-{[4-{[2-(methylcarbamoyl)-4-(1-methyl-1H-pyrazol-4-yl)phenyl]amino}-5-(trifluoromethyl)pyrimidin-2-yl]amino}benzyl)phosphonate]
IC50 (FAK [1]): < 1000 nM | IC50 (FAK [2]): < 1000 nM

Structure (SMILES): CCOP(=O)(Cc1ccc(Nc2ncc(C(F)(F)F)c(Nc3ccc(C(=O)O)c4c3C(=O)N(C)C4)n2)cc1)OCC [Example 128, 7-{[2-({4-[(Diethoxyphosphoryl)methyl]phenyl}amino)-5-(trifluoromethyl)pyrimidin-4-yl]amino}-2-methyl-1-oxo-2,3-dihydro-1H-isoindole-4-carboxylic acid]
IC50 (FAK [1]): 1000 to 10000 nM | IC50 (FAK [2]): < 1000 nM

Structure (SMILES): CCOP(=O)(Cc1ccc(Nc2ncc(C(F)(F)F)c(Nc3ccc(C(=O)O)c4c3C(=O)N(C)C4)n2)c(OC)c1)OCC [Example 129, 7-{[2-({4-[(Diethoxyphosphoryl)methyl]-2-methoxyphenyl}amino)-5-(trifluoromethyl)pyrimidin-4-yl]amino}-2-methyl-1-oxo-2,3-dihydro-1H-isoindole-4-carboxylic acid]
IC50 (FAK [1]): 1000 to 10000 nM | IC50 (FAK [2]): < 1000 nM

Structure (SMILES): CCOP(=O)(Cc1ccc(Nc2ncc(C(F)(F)F)c(Nc3cccc4ccn(C)c(=O)c34)n2)cc1)OCC [Example 131, Diethyl [4-({4-[(2-methyl-1-oxo-1,2-dihydroisoquinolin-8-yl)amino]-5-(trifluoromethyl)pyrimidin-2-yl}amino)benzyl]phosphonate]
IC50 (FAK [1]): < 1000 nM | IC50 (FAK [2]): < 1000 nM

Structure (SMILES): CCOP(=O)(Cc1ccc(Nc2ncc(C(F)(F)F)c(Nc3cccc4c3C(=O)N(C)CC4)n2)cc1)OCC [Example 132, Diethyl [4-({4-[(2-methyl-1-oxo-1,2,3,4-tetrahydroisoquinolin-8-yl)amino]-5-(trifluoromethyl)pyrimidin-2-yl}amino)benzyl]phosphonate]
IC50 (FAK [1]): < 1000 nM | IC50 (FAK [2]): < 1000 nM

Structure (SMILES): CCOP(=O)(Cc1ccc(Nc2ncc(C(F)(F)F)c(Nc3ccc(-c4cnn([C@H]5CC[C@H](O)CC5)c4)cc3C(=O)NC)n2)cc1)OCC [Example 137, Diethyl (4-{[4-({4-[1-(trans-4-hydroxycyclohexyl)-1H-pyrazol-4-yl]-2-(methylcarbamoyl)phenyl}amino)-5-(trifluoromethyl)pyrimidin-2-yl]amino}benzyl)phosphonate]
IC50 (FAK [1]): 1000 to 10000 nM | IC50 (FAK [2]): < 1000 nM

Structure (SMILES): CCOP(=O)(Cc1ccc(Nc2ncc(C(F)(F)F)c(Nc3ccc([C@H]4CC[C@@H](O)CC4)cc3C(=O)NC)n2)cc1)OCC [Example 138, Diethyl (4-{[4-{[4-(cis-4-hydroxycyclohexyl)-2-(methylcarbamoyl)phenyl]amino}-5-(trifluoromethyl)pyrimidin-2-yl]amino}benzyl)phosphonate]
IC50 (FAK [1]): < 1000 nM | IC50 (FAK [2]): < 1000 nM

Structure (SMILES): CCOP(=O)(Cc1ccc(Nc2ncc(C(F)(F)F)c(Nc3ccc([C@H]4CC[C@@H](O)CC4)cc3C(=O)NC)n2)c(OC)c1)OCC [Example 140, Diethyl (4-{[4-{[4-(cis-4-hydroxycyclohexyl)-2-(methylcarbamoyl)phenyl]amino}-5-(trifluoromethyl)pyrimidin-2-yl]amino}-3-methoxybenzyl)phosphonate]
IC50 (FAK [1]): < 1000 nM | IC50 (FAK [2]): < 1000 nM

Structure (SMILES): CCOP(=O)(Cc1ccc(Nc2ncc(C(F)(F)F)c(Nc3ccc(-c4ccn(CCO)n4)c4c3C(=O)N(C)C4)n2)cc1)OCC [Example 142, Diethyl (4-{[4-({7-[1-(2-hydroxyethyl)-1H-pyrazol-3-yl]-2-methyl-3-oxo-2,3-dihydro-1H-isoindol-4-yl}amino)-5-(trifluoromethyl)pyrimidin-2-yl]amino}benzyl)phosphonate]
IC50 (FAK [1]): < 1000 nM | IC50 (FAK [2]): < 1000 nM

Structure (SMILES): CCOP(=O)(O)Cc1ccc(Nc2ncc(C(F)(F)F)c(Nc3ccccc3C(=O)NC)n2)c(OC)c1 [Example 143, Ethyl hydrogen (3-methoxy-4-{[4-{[2-(methylcarbamoyl)phenyl]amino}-5-(trifluoromethyl)pyrimidin-2-yl]amino}benzyl)phosphonate]
IC50 (FAK [1]): < 1000 nM | IC50 (FAK [2]): < 1000 nM

Structure (SMILES): CCOP(=O)(Cc1ccc(Nc2ncc(C(F)(F)F)c(Nc3cccc4c3C(=O)N(C)C4(C)C)n2)c(OC)c1)OCC [Example 148, Diethyl [3-methoxy-4-({5-(trifluoromethyl)-4-[(1,1,2-trimethyl-3-oxo-2,3-dihydro-1H-isoindol-4-yl)amino]pyrimidin-2-yl}amino)benzyl]phosphonate]
IC50 (FAK [1]): 1000 to 10000 nM | IC50 (FAK [2]): < 1000 nM

Structure (SMILES): CCOP(=O)(Cc1ccc(Nc2ncc(C(F)(F)F)c(Nc3cccc4c3C(=O)N(C)C4(C)C)n2)cc1)OCC [Example 149, Diethyl [4-({5-(trifluoromethyl)-4-[(1,1,2-trimethyl-3-oxo-2,3-dihydro-1H-isoindol-4-yl)amino]pyrimidin-2-yl}amino)benzyl]phosphonate]
IC50 (FAK [1]): 1000 to 10000 nM | IC50 (FAK [2]): < 1000 nM

Structure (SMILES): CCOP(=O)(Cc1ccc(Nc2ncc(C(F)(F)F)c(Nc3ccc(C#N)cc3C(=O)NC)n2)c(OC)c1)OCC [Example 151, Diethyl (4-{[4-{[4-cyano-2-(methylcarbamoyl)phenyl]amino}-5-(trifluoromethyl)pyrimidin-2-yl]amino}-3-methoxybenzyl)phosphonate]
IC50 (FAK [1]): < 1000 nM | IC50 (FAK [2]): < 1000 nM

Structure (SMILES): CCOP(=O)(Cc1ccc(Nc2ncc(C(F)(F)F)c(Nc3ccc(-c4cnn([C@H]5CC[C@H](O)CC5)c4)c4c3C(=O)N(C)C4)n2)cc1)OCC [Example 164, Diethyl (4-{[4-({7-[1-(trans-4-hydroxycyclohexyl)-1H-pyrazol-4-yl]-2-methyl-3-oxo-2,3-dihydro-1H-isoindol-4-yl}amino)-5-(trifluoromethyl)pyrimidin-2-yl]amino}benzyl) phosphonate]
IC50 (FAK [1]): < 1000 nM | IC50 (FAK [2]): < 1000 nM

IC50 (FAK [1]): < 1000 nM | IC50 (FAK [2]): < 1000 nM
Structure (SMILES): CN1Cc2c(c(Nc3nc(Nc4ccc(CP(=O)(OCC(F)(F)F)OCC(F)(F)F)cc4)ncc3C(F)(F)F)ccc2[C@H]2CC[C@H](O)CC2)C1=O [Example 165, Bis(2,2,2-trifluoroethyl) (4-{[4-{[7-(trans-4-hydroxycyclohexyl)-2-methyl-3-oxo-2,3-dihydro-1H-isoindol-4-yl]amino}-5-(trifluoromethyl)pyrimidin-2-yl]amino}benzyl)phosphonate]

Structure (SMILES): CCOP(=O)(Cc1ccc(Nc2ncc(C(F)(F)F)c(Nc3ccc([C@H]4CC[C@@H](OCC)CC4)c4c3C(=O)N(C)C4)n2)cc1)OCC [Example 166, Diethyl (4-{[4-{[7-(cis-4-ethoxycyclohexyl)-2-methyl-3-oxo-2,3-dihydro-1H-isoindol-4-yl]amino}-5-(trifluoromethyl)pyrimidin-2-yl]amino}benzyl)phosphonate]
IC50 (FAK [1]): < 1000 nM | IC50 (FAK [2]): < 1000 nM

Structure (SMILES): CCOP(=O)(Cc1ccc(Nc2ncc(C(F)(F)F)c(Nc3ccc([C@H]4CC[C@@H](OCC)CC4)c4c3C(=O)N(C)C4)n2)c(OC)c1)OCC [Example 167, Diethyl (4-{[4-{[7-(cis-4-ethoxycyclohexyl)-2-methyl-3-oxo-2,3-dihydro-1H-isoindol-4-yl]amino}-5-(trifluoromethyl)pyrimidin-2-yl]amino}-3-methoxybenzyl) phosphonate]
IC50 (FAK [1]): < 1000 nM | IC50 (FAK [2]): < 1000 nM

IC50 (FAK [1]): < 1000 nM | IC50 (FAK [2]): < 1000 nM
Structure (SMILES): CCCP(=O)(CCC)c1cccc(Nc2ncc(C(F)(F)F)c(Nc3ccc(-c4cnn(CCO)c4)c4c3C(=O)N(C)C4)n2)c1 [Example 168, 7-{[2-{[3-(Dipropylphosphoryl)phenyl]amino}-5-(trifluoromethyl)pyrimidin-4-yl]amino}-4-[1-(3-hydroxyethyl)-1H-pyrazol-4-yl]-2-methyl-2,3-dihydro-1H-isoindol-1-one]

Structure (SMILES): CCOP(=O)(Cc1ccc(Nc2ncc(C(F)(F)F)c(Nc3ccc([C@H]4CC[C@H](OCC)CC4)c4c3C(=O)N(C)C4)n2)cc1)OCC [Example 169, Diethyl (4-{[4-{[7-(trans-4-ethoxycyclohexyl)-2-methyl-3-oxo-2,3-dihydro-1H-isoindol-4-yl]amino}-5-(trifluoromethyl)pyrimidin-2-yl]amino}benzyl)phosphonate]
IC50 (FAK [1]): < 1000 nM | IC50 (FAK [2]): < 1000 nM

Structure (SMILES): CCOP(=O)(OCC)C(F)c1ccc(Nc2ncc(C(F)(F)F)c(Nc3ccccc3C(=O)NC)n2)cc1 (stereo not drawn) [Example 172, Diethyl [fluoro(4-{[4-{[2-(methylcarbamoyl)phenyl]amino}-5-(trifluoromethyl)pyrimidin-2-yl]amino}phenyl)methyl]phosphonate]
IC50 (FAK [1]): < 1000 nM | IC50 (FAK [2]): < 1000 nM

Structure (SMILES): CCOP(C)(=O)Cc1ccc(Nc2ncc(C(F)(F)F)c(Nc3ccc([C@H]4CC[C@H](O)CC4)c4c3C(=O)N(C)C4)n2)cc1 (stereo partly drawn) [Example 174, Ethyl (4-{[4-{[7-(trans-4-hydroxycyclohexyl)-2-methyl-3-oxo-2,3-dihydro-1H-isoindol-4-yl]amino}-5-(trifluoromethyl)pyrimidin-2-yl]amino}benzyl) methylphosphinate]
IC50 (FAK [1]): < 1000 nM | IC50 (FAK [2]): < 1000 nM

Structure (SMILES): CCOP(=O)(Cc1ccc(Nc2ncc(C(F)(F)F)c(Nc3ccc(-c4cnn(CCN(CC)CC)c4)c4c3C(=O)N(C)C4)n2)cc1)OCC [Example 175, Diethyl [4-({4-[(7-{1-[2-(diethylamino)ethyl]-1H-pyrazol-4-yl}-2-methyl-3-oxo-2,3-dihydro-1H-isoindol-4-yl)amino]-5-(trifluoromethyl)pyrimidin-2-yl}amino)benzyl]phosphonate]
IC50 (FAK [1]): < 1000 nM | IC50 (FAK [2]): < 1000 nM

Structure (SMILES): CCOP(=O)(Cc1ccc(Nc2ncc(C(F)(F)F)c(Nc3ccccc3C(=O)N3CCCC3)n2)cc1)OCC [Example 176, Diethyl (4-{[4-{[2-(pyrrolidin-1-ylcarbonyl)phenyl]amino}-5-(trifluoromethyl)pyrimidin-2-yl]amino}benzyl)phosphonate]
IC50 (FAK [1]): 1000 to 10000 nM | IC50 (FAK [2]): < 1000 nM
